Laboratory results as given in US7605280B2, “Anthraquinone and its derivatives” (Biostatus Limited, priority 1998, dated 2009).

System: viable HL60 cells
Experiment: CLSM analysis of nuclear fluorescence in viable cells
Type: cell-based, human
Conditions: 10 μM for 1 h
Source text: The system used was a Leica TCS 4D (LaserTechnik Gmbh, Germany) scanner coupled to a Leitz DM R microscope and operating with an Ominchrome argon/krypton laser. The laser provided emission lines at 488, 568 and 647 nm with variable power. Coverslip cultures were washed briefly in PBS, mounted in inverted positions on glass slides, the coverslips being supported at the edges by a piping of petroleum jelly to prevent the cells from being compressed. The slides were examined immediately using ×100 or ×40 oil immersion objective lenses with mid-range pinhole and photomultiplier gain settings. Excitation/emission wavelengths for DRAQ5, fluorescein and rhodamine 123 were 647 nm/>665 nm, 488 nm/>515 nm and 488 nm/>590 nm respectively. Gain settings were adjusted such that the most fluorescent drug-treated sample gave pixel intensities just below saturation. The black level/offset was adjusted to give effectively zero background (<4 for pixel value) after 16× line noise filtration of images for untreated controls. […]
Thus, FIG. 2h to k show simultaneous CLSM capture of transmission (panels h and j) and the corresponding far red/low infra-red fluorescence (panels i and […] respectively) images of viable HL60 cells exposed to either 10 μM DRAQ5 or 10 μM DRAQ5N for 1 h. • 1. […]

For CN(C)CCNc1ccc(O)c2c1C(=O)c1c(O)ccc(NCCN(C)C)c1C2=O [DRAQ5], the “integrated nuclear fluorescence intensity per nucleus section, DRAQ5 relative to DRAQ5N-treated cells” value was “approximately 10 fold”.
